Test results taken from ChEMBL document CHEMBL5257079, “Discovery of FXR/PPARγ dual partial agonist” (Bioorg Med Chem, 2023).
Active and inactive are the calls of the source. The rule behind the calls is not given here.

How the values were obtained:
[1] = molecular target: T1, Bile acid receptor (Homo sapiens) (UniProt Q96RI1); experiment: Antagonist activity at FXR-LBD-GST (unknown origin) in presence of GW4064 relative to control; set-up: scale not given: the % may be the effect or the level left
T1 sequence (whole entry): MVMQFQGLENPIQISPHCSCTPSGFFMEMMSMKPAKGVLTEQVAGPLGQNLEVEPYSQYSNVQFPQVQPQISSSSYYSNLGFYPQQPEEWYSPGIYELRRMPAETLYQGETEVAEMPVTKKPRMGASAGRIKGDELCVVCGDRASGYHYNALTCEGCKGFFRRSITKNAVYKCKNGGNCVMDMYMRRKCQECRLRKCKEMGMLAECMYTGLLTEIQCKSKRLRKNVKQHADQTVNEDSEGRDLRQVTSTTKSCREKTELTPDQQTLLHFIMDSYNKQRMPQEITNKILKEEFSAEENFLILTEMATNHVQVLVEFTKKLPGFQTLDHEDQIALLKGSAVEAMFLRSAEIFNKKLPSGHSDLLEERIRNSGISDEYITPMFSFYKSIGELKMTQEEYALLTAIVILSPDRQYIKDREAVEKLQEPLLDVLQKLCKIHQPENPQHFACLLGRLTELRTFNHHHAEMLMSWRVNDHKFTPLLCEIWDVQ

[2] = molecular target: T2, G-protein coupled bile acid receptor 1 (Homo sapiens) (UniProt Q8TDU6); experiment: Activation of TGR5 (unknown origin) at 10 uM
T2 sequence (whole entry): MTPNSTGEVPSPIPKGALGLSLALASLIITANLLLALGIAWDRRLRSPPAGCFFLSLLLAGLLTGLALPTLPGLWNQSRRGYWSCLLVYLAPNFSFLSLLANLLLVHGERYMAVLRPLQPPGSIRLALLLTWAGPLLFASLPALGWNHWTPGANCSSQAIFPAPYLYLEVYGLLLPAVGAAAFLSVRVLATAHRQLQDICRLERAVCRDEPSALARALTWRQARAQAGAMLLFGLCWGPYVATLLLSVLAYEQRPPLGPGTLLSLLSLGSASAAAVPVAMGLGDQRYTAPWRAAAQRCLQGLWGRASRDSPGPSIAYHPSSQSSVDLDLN

[3] = molecular target: T3, Retinoic acid receptor RXR-alpha (Homo sapiens) (UniProt P19793); experiment: Activation of RXRalpha (unknown origin) at 10 uM
T3 sequence (whole entry): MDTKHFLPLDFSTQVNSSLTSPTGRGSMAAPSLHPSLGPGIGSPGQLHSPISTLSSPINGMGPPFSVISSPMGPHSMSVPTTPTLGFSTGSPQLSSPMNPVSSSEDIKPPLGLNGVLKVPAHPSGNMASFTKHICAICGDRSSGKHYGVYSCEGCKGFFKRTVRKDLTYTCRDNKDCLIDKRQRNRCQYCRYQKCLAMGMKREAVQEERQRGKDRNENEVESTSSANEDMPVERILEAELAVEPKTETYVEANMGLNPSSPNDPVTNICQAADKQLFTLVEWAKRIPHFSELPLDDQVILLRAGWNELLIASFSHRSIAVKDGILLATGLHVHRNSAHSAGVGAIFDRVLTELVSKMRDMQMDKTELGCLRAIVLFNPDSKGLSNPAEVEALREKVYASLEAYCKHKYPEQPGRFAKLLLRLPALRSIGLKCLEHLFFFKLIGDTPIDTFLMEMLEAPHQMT

Bile acid receptor [4] = molecular target: T4, Bile acid receptor (Homo sapiens, UniProt Q96RI1); experiment: Partial agonist activity at FXR-LBD-GST (unknown origin) by TR-FRET assay; conditions: read-out: EC50
T4 sequence (Q96RI1 whole entry): T1 sequence (whole entry)

[5] = molecular target: T5, Peroxisome proliferator-activated receptor gamma (Mus musculus) (UniProt P37238); experiment: Inhibition of TNFalpha stimulated PPARgamma phosphorylation at Ser273 residue in mouse 3T3-L1 cells preincubated for 60 mins followed by TNFalpha addition for 90 mins by Western blot analysis; assay type: cell-based; conditions: time 150.0 min
T5 sequence (whole entry): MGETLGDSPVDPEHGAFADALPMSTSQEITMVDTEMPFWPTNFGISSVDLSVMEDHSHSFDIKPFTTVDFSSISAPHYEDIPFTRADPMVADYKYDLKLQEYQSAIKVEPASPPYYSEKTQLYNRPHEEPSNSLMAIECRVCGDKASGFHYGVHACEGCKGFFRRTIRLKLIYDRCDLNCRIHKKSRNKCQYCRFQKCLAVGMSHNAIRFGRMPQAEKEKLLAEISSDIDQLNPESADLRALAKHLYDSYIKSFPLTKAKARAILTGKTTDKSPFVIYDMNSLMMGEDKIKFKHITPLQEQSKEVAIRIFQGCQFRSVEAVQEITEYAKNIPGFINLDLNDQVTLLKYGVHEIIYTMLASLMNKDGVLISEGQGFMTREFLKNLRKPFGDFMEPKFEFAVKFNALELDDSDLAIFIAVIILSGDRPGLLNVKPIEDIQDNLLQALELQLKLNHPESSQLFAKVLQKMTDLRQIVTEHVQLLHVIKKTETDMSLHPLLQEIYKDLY

Bile acid receptor [6] = molecular target: T4, Bile acid receptor; experiment: Partial agonist activity at human FXR expressed in Huh-7 cells in presence of CDCA by luciferase reporter gene assay; assay type: cell-based
[7] = molecular target: T6, Peroxisome proliferator-activated receptor delta (Homo sapiens) (UniProt Q03181); experiment: Activation of PPARdelta (unknown origin) at 10 uM
T6 sequence (whole entry): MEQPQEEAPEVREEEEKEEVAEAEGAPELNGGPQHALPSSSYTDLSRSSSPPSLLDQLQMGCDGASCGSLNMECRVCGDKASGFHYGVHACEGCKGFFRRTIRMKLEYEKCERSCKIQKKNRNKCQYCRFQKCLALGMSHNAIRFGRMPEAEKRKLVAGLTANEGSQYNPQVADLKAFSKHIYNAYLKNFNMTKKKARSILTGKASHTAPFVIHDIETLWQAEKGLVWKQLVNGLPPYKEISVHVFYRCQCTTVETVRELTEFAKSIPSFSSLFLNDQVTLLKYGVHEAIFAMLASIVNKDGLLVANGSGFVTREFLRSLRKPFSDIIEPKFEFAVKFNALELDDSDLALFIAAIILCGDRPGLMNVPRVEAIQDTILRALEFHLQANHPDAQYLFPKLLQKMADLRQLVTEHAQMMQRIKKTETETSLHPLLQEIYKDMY

[8] = molecular target: T7, Oxysterols receptor LXR-beta (Homo sapiens) (UniProt P55055); experiment: Activation of LXR beta (unknown origin) at 10 uM
T7 sequence (whole entry): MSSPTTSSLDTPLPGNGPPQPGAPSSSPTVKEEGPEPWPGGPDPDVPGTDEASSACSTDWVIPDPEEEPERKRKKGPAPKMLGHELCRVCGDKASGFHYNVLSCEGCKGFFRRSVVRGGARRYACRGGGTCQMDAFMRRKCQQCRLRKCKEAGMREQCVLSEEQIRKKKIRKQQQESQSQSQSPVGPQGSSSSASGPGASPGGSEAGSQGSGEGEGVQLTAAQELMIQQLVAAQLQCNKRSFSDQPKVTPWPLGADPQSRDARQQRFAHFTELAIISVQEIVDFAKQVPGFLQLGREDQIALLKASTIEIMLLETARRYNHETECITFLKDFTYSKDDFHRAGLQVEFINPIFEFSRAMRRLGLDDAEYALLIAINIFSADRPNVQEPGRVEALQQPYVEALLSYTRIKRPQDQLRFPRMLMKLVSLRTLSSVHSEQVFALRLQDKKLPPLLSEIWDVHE

Activity [1]: 30% | Activity [2]: inactive | Activity [3]: inactive | EC50 (Bile acid receptor [4]): 250 nM | inhibition [5]: Dose-Dependent Effect | EC50 (Bile acid receptor [6]): 1900 nM | Activity [7]: inactive | Activity [8]: inactive
Compound: CC(C)(C)c1ccc(-n2cnc3c(NC(=O)Cc4ccc(C(=O)O)cc4)cccc32)cc1
